These results are taken from patent US20100137313A1 (ASTRAZENECA AB, priority 2008, published 2010).

For the assay, the target named is S. pneumoniae Topoisomerase IV ATPase (ParE) (Streptococcus pneumoniae serotype 4, UniProt Q59961). As to the kind of experiment: S. pneumoniae Topoisomerase IV ATPase inhibition. The conditions noted are these: values marked * are an average of two or more data points, read-out: % Inh (13 μM) of S. pneumoniae Topoisomerase IV ATPase. It is filed as biochemical. A digest of the protocol: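 S. pneumoniae ParE (1.25 nM) ATPase with 160 μM ATP and 5 μg/ml sheared DNA in pH 8.0 Tris, Mg2+, DTT, Brij-35; phosphate detected by malachite green/molybdate at 650 nm. Normalised to 2% DMSO (0%) and 20 μM EDTA (100%); IC50 from 10 concentrations.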
Sequence of S. pneumoniae Topoisomerase IV ATPase (ParE) (Q59961 whole entry): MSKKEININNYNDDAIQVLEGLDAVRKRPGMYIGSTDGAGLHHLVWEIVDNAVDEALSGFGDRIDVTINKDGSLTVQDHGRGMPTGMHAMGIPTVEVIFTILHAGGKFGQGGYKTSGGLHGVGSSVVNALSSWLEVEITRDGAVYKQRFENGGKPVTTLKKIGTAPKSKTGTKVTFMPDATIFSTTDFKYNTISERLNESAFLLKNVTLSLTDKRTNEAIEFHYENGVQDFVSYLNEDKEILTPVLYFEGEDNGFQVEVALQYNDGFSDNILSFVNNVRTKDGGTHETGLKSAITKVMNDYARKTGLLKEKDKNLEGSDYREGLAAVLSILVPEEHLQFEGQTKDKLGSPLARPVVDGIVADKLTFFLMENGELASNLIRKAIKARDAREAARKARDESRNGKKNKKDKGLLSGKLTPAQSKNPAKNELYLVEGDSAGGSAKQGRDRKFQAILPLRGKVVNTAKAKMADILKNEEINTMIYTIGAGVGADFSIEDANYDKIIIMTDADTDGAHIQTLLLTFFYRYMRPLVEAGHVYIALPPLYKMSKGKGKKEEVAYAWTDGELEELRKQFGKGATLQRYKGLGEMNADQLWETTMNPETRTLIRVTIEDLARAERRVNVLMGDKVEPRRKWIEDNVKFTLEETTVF
As to `CS(=O)(=O)CCOc1ncc(-c2cnc(Nc3ccc(F)c(Cl)c3)nc2-n2ccc(C(F)(F)F)n2)cc1C(=O)O` [Example 966, 5-(2-(3-chloro-4-fluorophenylamino)-4-(3-(trifluoromethyl)-1H-pyrazol-1-yl)pyrimidin-5-yl)-2-(2-(methylsulfonyl)ethoxy)nicotinic acid], the inhibition at 13 µM amounted to 100%.
With `Cc1cc(C#N)cc(Nc2ncc(-c3cncc(C(=O)O)c3)c(-n3nc(C(F)(F)F)cc3C)n2)c1` [Example 785, 5-{2-[(3-cyano-5-methylphenyl)amino]-4-[5-methyl-3-(trifluoromethyl)-1H-pyrazol-1-yl]pyrimidin-5-yl}pyridine-3-carboxylic acid], the inhibition at 13 µM was found to be 100%.
Take `CONC(=O)c1cncc(-c2cnc(Nc3ccc(F)c(Cl)c3)nc2-n2cc(-c3ccccn3)cn2)c1` [Example 550, 5-{2-[(3-chloro-4-fluorophenyl)amino]-4-[4-(pyridin-2-yl)-1H-pyrazol-1-yl]pyrimidin-5-yl}-N-methoxypyridine-3-carboxamide]: the inhibition at 13 µM is 100%.
As to `CCC1COC(C)CN1c1nc(Nc2ccc(F)c(Cl)c2)ncc1-c1cncc(C(=O)O)c1` (stereo not drawn) [Example 1058, 5-(2-(3-Chloro-4-fluorophenylamino)-4-(5-ethyl-2-methylmorpholino)pyrimidin-5-yl)nicotinic acid], the inhibition at 13 µM was found to be 87%.
For `COc1ncc(-c2cnc(Nc3ccc(F)c(Cl)c3)nc2-n2ccc(C(F)(F)F)n2)cc1C(=O)NS(C)(=O)=O` [Example 1024, 5-(2-(3-Chloro-4-fluorophenylamino)-4-(3-(trifluoromethyl)-1H-pyrazol-1-yl)pyrimidin-5-yl)-2-methoxy-N-(methylsulfonyl)nicotinamide] the value was 100%; for `COCCCNc1nc(Nc2ccc(F)c(Cl)c2)ncc1-c1ccc2c(c1)c(=O)c(C(=O)O)cn2CCOC` [Example 304, 6-(2-(3-chloro-4-fluorophenylamino)-4-(3-methoxypropylamino)-pyrimidin-5-yl)-1-(2-methoxyethyl)-4-oxo-1,4-dihydroquinoline-3-carboxylic acid], 55.8%.
In the case of `Cc1ccc(Nc2ncc(-c3cccc(/C=C/C(=O)O)c3)c(NCCCN(C)C)n2)cc1C#N` [Example 338, (E)-3-(3-(2-(3-cyano-4-methylphenylamino)-4-(3-(dimethylamino)propylamino)pyrimidin-5-yl)phenyl)acrylic acid] it was 58.4%.
In the case of `Cc1cc(C(F)(F)F)nn1-c1nc(Nc2cccc(F)c2)ncc1-c1cccc(/C=C/C(=O)O)c1` [Example 622, (2E)-3-(3-{2-[(3-fluorophenyl)amino]-4-[5-methyl-3-(trifluoromethyl)-1H-pyrazol-1-yl]pyrimidin-5-yl}phenyl)prop-2-enoic acid] it was 98%.
For `COc1ncc(-c2cnc(Nc3ccc(F)c(Cl)c3)nc2-n2nc(C(F)(F)F)cc2C)cc1C(N)=O` [Example 1105, 5-(2-(3-chloro-4-fluorophenylamino)-4-(5-methyl-3-(trifluoromethyl)-1H-pyrazol-1-yl)pyrimidin-5-yl)-2-methoxynicotinamide], the inhibition at 13 µM came to 82%.
For `COc1ncc(-c2cnc(Nc3ccc(F)c(Cl)c3)nc2N[C@H]2CCOC2)cn1` [Example 941, (S)-N2-(3-chloro-4-fluorophenyl)-2′-methoxy-N4-(tetrahydrofuran-3-yl)-5,5′-bipyrimidine-2,4-diamine] the value was 54%; for `O=C(O)/C=C/c1cccc(-c2cnc(Nc3ccc(F)c(F)c3)nc2N2CCOCC2)c1` [Example 350, (E)-3-(3-(2-(3,4-difluorophenylamino)-4-morpholinopyrimidin-5-yl)phenyl)acrylic acid], 69%; for `COCCCNc1nc(Nc2ccc(F)c(Cl)c2)ncc1-c1nc(-c2nccs2)cs1` [Example 502, 5-(2,4′-bi-1,3-thiazol-2′-yl)-N^2-(3-chloro-4-fluorophenyl)-N^4-(3-methoxypropyl)pyrimidine-2,4-diamine], 10%.
For `CC(=O)Nc1ccn(-c2nc(Nc3ccc(F)c(Cl)c3)ncc2-c2cncc(C(N)=O)c2)n1` [Example 541, 5-{4-[3-(acetylamino)-1H-pyrazol-1-yl]-2-[(3-chloro-4-fluorophenyl)amino]pyrimidin-5-yl}pyridine-3-carboxamide] the value was 97%; for `CN(C)CCCNc1nc(Nc2ccc(F)c(Cl)c2)ncc1-c1ccc(C(=O)N(C)C)cc1` [Example 364, 4-(2-(3-chloro-4-fluorophenylamino)-4-(3-(dimethylamino)propylamino)pyrimidin-5-yl)-N,N-dimethylbenzamide], 112%.
For `COc1cc(Nc2ncc(-c3cncc(C(=O)NCCS(C)(=O)=O)c3)c(-n3nc(C(F)(F)F)cc3C)n2)cc(OC)c1` [Example 685, 5-{2-[(3,5-dimethoxyphenyl)amino]-4-[5-methyl-3-(trifluoromethyl)-1H-pyrazol-1-yl]pyrimidin-5-yl}-N-[2-(methylsulfonyl)ethyl]pyridine-3-carboxamide] the value was 100%.
For `CC(C)(C)OC(=O)NCCNc1nc(Nc2ccc(F)c(Cl)c2)ncc1-c1cncc(C(=O)O)c1` [Example 225, 5-[4-(2-tert-Butoxycarbonylamino-ethylamino)-2-(3-chloro-4-fluoro-phenylamino)-pyrimidin-5-yl]-nicotinic acid], the inhibition at 13 µM stood at 81.1%.
As for `CCOC(=O)c1cncc(-c2cnc(Nc3ccc(F)c(Cl)c3)nc2NC(COC)COC)c1` [Example 149, ethyl 5-(2-(3-chloro-4-fluorphenylamino)-4-(1,3-dimethoxypropan-2-ylamino)pyrimidin-5-yl)nicotinate], the inhibition at 13 µM came out at 82.2%.
For `CCOC(=O)/C=C/c1cccc(-c2cnc(Nc3cc(C)c(Cl)cc3OC)nc2NCCCN(C)C)c1` [Example 343, (E)-ethyl 3-(3-(2-(4-chloro-2-methoxy-5-methylphenylamino)-4-(3-(dimethylamino)propylamino)pyrimidin-5-yl)phenyl)acrylate] the value was -22.3%.
In the case of `COc1cc(Nc2ncc(-c3cncc(C(=O)NCCS(C)(=O)=O)c3)c(-n3ccc(C(F)(F)F)n3)n2)cc(OC)c1` [Example 684, 5-{2-[(3,5-dimethoxyphenyl)amino]-4-[3-(trifluoromethyl)-1H-pyrazol-1-yl]pyrimidin-5-yl}-N-[2-(methylsulfonyl)ethyl]pyridine-3-carboxamide] it was 100%; in that of `COc1cccc(Nc2ncc(-c3cccc(/C=C/C(=O)O)c3)c(N3CCOCC3)n2)c1` [Example 451], 70%.
With `CN(C)CCCNc1nc(Nc2ccc(F)c(Cl)c2)ncc1-c1ccc2sc(C(=O)O)cc2c1` [Example 217, 5-(2-(3-chloro-4-fluorophenylamino)-4-(3-(dimethylamino)propylamino)pyrimidin-5-yl)benzo[b] thiophene-2-carboxylic acid], the inhibition at 13 µM is 82.4%.
As for `Cc1cc(C(F)(F)F)nn1-c1nc(Nc2cccc(C#N)c2)ncc1-c1cccc(/C=C/C(=O)O)c1` [Example 693, (2E)-3-(3-{2-[(3-cyanophenyl)amino]-4-[5-methyl-3-(trifluoromethyl)-1H-pyrazol-1-yl]pyrimidin-5-yl}phenyl)prop-2-enoic acid], the inhibition at 13 µM stood at 97%.
`Cc1cc(C(F)(F)F)nn1-c1nc(Nc2ccc(F)c(Cl)c2)ncc1-c1cncc(C(=O)N2CCOCC2)c1` [Example 931, (5-(2-(3-chloro-4-fluorophenylamino)-4-(5-methyl-3-(trifluoromethyl)-1H-pyrazol-1-yl)pyrimidin-5-yl)pyridin-3-yl)(morpholino)methanone]: the inhibition at 13 µM was found to be 100%.
`O=C(O)c1cncc(-c2cnc(Nc3ccc(F)c(Cl)c3)nc2NCc2cccnc2)c1` [Example 223, 5-{2-(3-Chloro-4-fluoro-phenylamino)-4-[(pyridin-3-ylmethyl)-amino]-pyrimidin-5-yl}-nicotinic acid]: the inhibition at 13 µM came out at 77.4%.
For the compound `COc1ncc(-c2cnc(Nc3cc(C)cc(C#N)c3)nc2-n2nc(C(F)(F)F)cc2C)cc1C(=O)O` [Example 781, 5-{2-[(3-cyano-5-methylphenyl)amino]-4-[5-methyl-3-(trifluoromethyl)-1H-pyrazol-1-yl]pyrimidin-5-yl}-2-methoxypyridine-3-carboxylic acid], the inhibition at 13 µM was 99%.
Take `COc1cc(Nc2ncc(-c3cnc(OC)c(C(=O)O)c3)c(-n3ccc(C4CC4)n3)n2)cc(OC)c1` [Example 1143, 5-(4-(3-cyclopropyl-1H-pyrazol-1-yl)-2-(3,5-dimethoxyphenylamino)pyrimidin-5-yl)-2-methoxynicotinic acid]: the inhibition at 13 µM stood at 100%.
For `O=C(O)[C@@H]1C[C@H]1c1cccc(-c2cnc(Nc3ccc(F)c(Cl)c3)nc2-n2ccc(C(F)(F)F)n2)c1` (racemic) [Example 574, (1,2-trans)-2-(3-(2-(3-chloro-4-fluorophenylamino)-4-(3-(trifluoromethyl)-1H-pyrazol-1-yl)pyrimidin-5-yl)phenyl)cyclopropanecarboxylic acid] the value was 96%.
For `O=C(O)/C=C/c1cccc(-c2cnc(Nc3cc(F)cc(F)c3)nc2N2CCOCC2)c1` [Example 404, (E)-3-{3-[2-(3,5-Difluoro-phenylamino)-4-morpholin-4-yl-pyrimidin-5-yl]-phenyl}-acrylic acid] the value was 81%; for `Cc1cc(C)cc(Nc2ncc(-c3cncc(C(=O)O)c3)c(-n3ccc(C(F)(F)F)n3)n2)c1` [Example 637, 5-{2-[(3,5-dimethylphenyl)amino]-4-[3-(trifluoromethyl)-1H-pyrazol-1-yl]pyrimidin-5-yl}pyridine-3-carboxylic acid], 100%.
In the case of `Fc1ccc(Nc2ncc(-c3cncnc3)c(NCc3ccncc3)n2)cc1Cl` [Example 40, N^2-(3-chloro-4-fluorophenyl)-N^4-(pyridin-4-ylmethyl)-5-pyrimidin-5-ylpyrimidine-2,4-diamine] it was 72.4%.
